# Reference: patent US20090253644A1, “Radiosensitizer” (TOYO SUISAN KAISHA, LTD., priority 2004, published 2009)
# What was measured:
# [1] = tested on: human uterine cervical cancer cells (HeLa cells); experiment: Animal experiment: HeLa tumor-transplanted nude mice, tumor growth delay with X-ray irradiation; type: in vivo; details: Exp. Ex. 1-6: X-ray 8 Gy day 0 and day 4
# Procedure: A human cancer-transplanted mouse was prepared in the same manner as in Experimental Example 1-5 except that human uterine cervical cancer cells (HeLa cells) were transplanted into a nude mouse. When tumor volume reached 100 mm^3, α-SQMG C18:0 administration and irradiation treatment were performed. In a single use group of irradiation, each mouse was irradiated with X-ray at a dose of 8 Gy two times on day 0 and day 4. In a single use group of α-SQMG C18:0 administration, α-SQMG C18:0 was intraperitoneally administered at a concentration of 1 mg/kg at a total of 10 times consisting of two courses of 5 times, that is, once a day from day 0 to day 4 and once a day from day 12 to day 16. In the combined use group, each mouse of the group was treated with both of irradiation and α-SQMG C18:0 administration. In the control group, neither irradiation nor α-SQMG C18:0 administration was performed. Thereafter, tumor volume was measured over a period of 35 days in the same manner as the above Experimental Example 1-1.
# [2] = tested on: human tongue squamous carcinoma cells (SAS cells); experiment: Animal experiment: SAS tumor-transplanted nude mice, tumor growth delay with X-ray irradiation; type: in vivo; details: for enhancement ratio (ER): tumor volume 500 mm^3
# From the text: Nude mice were assigned to four groups (control group; single use group of the present radiosensitizer administration; single use group of irradiation; and combined use group of irradiation and the present radiosensitizer administration; 4 mice per group). 1.0×10^6 human tongue squamous carcinoma cells (SAS cells) were suspended in PBS(−), and the suspension was transplanted subcutaneously into a right thigh of each mouse. After 10 to 14 days, when tumor volume became a desired value in a range of about 50 mm^3 to about 100 mm^3, each mouse was subjected to treatment according to each group. As a radiosensitizer, 3-O-(6-deoxy-6-sulfo-α-D-glucopyranosyl)-1-O-stearoyl-glycerol sodium salt (hereinafter, also referred to as “α-SQMG C18:0”) was used. Regarding the single use group of irradiation, X-ray was irradiated two times (at the time of treatment initiation (day 0) and on day 6 after the treatment initiation) at a dose of 8 Gy. Regarding the single use group of α-SQMG C18:0 administration, the sensitizer was intraperitoneally administered two times (day 0 and day 6) at a concentration of 1 mg/kg. Regarding the combined use group, each mouse of the group was treated with both of irradiation and α-SQMG C18:0 administration. Regarding the control group, neither irradiation nor α-SQMG C18:0 administration was performed. Thereafter, a short diameter and a long diameter of a tumor were measured with a micrometer caliper over a period of 16 to 23 days. Tumor volume was calculated by the following equation, and the tumor growth delaying effect was compared.
# Equation for calculating tumor volume:
# tumor volume (mm^3)=(short diameter)^2×(long diameter)×0.5
# (§1) The same experiment as that of Experimental Example 1-1 was performed except that irradiation was performed at the time of treatment initiation (day 0) and on day 4 after the treatment initiation, administration of α-SQMG C18:0 was performed only on day 0, and measurement of tumor size was performed over a period of 26 days.
# In order to express numerically this synergistic effect, ER (enhancement ratio) was calculated by the following equation. ER is a value defined by the literature (Int., J. Radiation Oncology Bio. Phys. Vol. 55, No. 3, pp. 713-723 (2003)), and ER will be explained below based on the definition.
# ER=NGD÷TGD in the case of X-ray irradiation alone
# In the equation, “TGD (tumor growth delay)” indicates delay of days necessary for tumor volume to reach a predetermined size in each test group as compared with a control group. That is, this is expressed by the following equation. In the Examples of the present invention, the predetermined size of tumor volume is 500 mm^3, unless otherwise indicated.
# TGD=(number of days necessary for tumor volume to reach 500 mm^3 in test group)−(number of days necessary for tumor volume to reach 500 mm^3 in control group)
# “NGD (normalized growth delay)” is expressed by the following equation.
# NGD=(TGD in the case of combined use)−(TGD in the case of drug administration alone)
# According to the aforementioned literature, it can be said that the anti-tumor effect is synergistic, when an enhancement ratio (ER) obtained by the above equation exceeds 1.0.
# as §1, with “3” for “4”, “initiation,” for “initiation, administration of”, “administered once a” for “performed only on”, “from day 0 to day 4,” for “0,”, “35” for “26”
# In the present Experimental Example, an experiment was performed in the same manner as in the above Experimental Example except that irradiation was performed at a dose of 2 Gy per fraction everyday from the time of treatment initiation (day 0) to day 4, and administration of α-SQMG C18:0 was performed everyday from day 0 to day 4. Details of the experiment will be described below.
# Four nude mice (eight weeks old) were randomly assigned to each of four groups. […]
# [3] = Exp. Ex. 1-2: X-ray 8 Gy day 0 and day 4, 1 mg/kg i.p. day 0 only
# [4] = Exp. Ex. 1-3: X-ray 8 Gy day 0 and day 3, 1 mg/kg i.p. once a day day 0 to 4
structure (smiles),measurement,setting,value
"CCCCCCCCCCCCCCCCCC(=O)OCC(O)CO[C@H]1O[C@H](CS(=O)(=O)[O-])[C@@H](O)[C@H](O)[C@H]1O.[Na+] (stereo partly drawn) [α-SQMG C18:0, 3-O-(6-deoxy-6-sulfo-α-D-glucopyranosyl)-1-O-stearoyl-glycerol sodium salt]",enhancement ratio (ER),"[1]; 1 mg/kg i.p. day 0 to 4 and day 12 to 16, tumor volume 500 mm^3",2.71
same,"anti-tumor effect (tumor volume), combined use with irradiation",[1]; 1 mg/kg i.p. once a day day 0 to 4 and day 12 to 16,anti-tumor effect far exceeding the anti-tumor effect attained by irradiation
same,"anti-tumor effect (tumor volume), combined use with irradiation","[2]; Exp. Ex. 1-1: X-ray 8 Gy day 0 and day 6, 1 mg/kg i.p. day 0 and day 6",anti-tumor effect far exceeding the anti-tumor effect attained by irradiation
same,"anti-tumor effect (tumor volume), combined use with irradiation",[2]; [3],anti-tumor effect far exceeding the anti-tumor effect attained by irradiation
same,enhancement ratio (ER),[2]; [3],2.0
same,"anti-tumor effect (tumor volume), combined use with irradiation",[2]; [4],anti-tumor effect far exceeding the anti-tumor effect attained by irradiation
same,enhancement ratio (ER),[2]; [4],3.0
same,"anti-tumor effect (tumor volume), combined use with irradiation","[2]; Exp. Ex. 1-4: X-ray 2 Gy once a day day 0 to 4 (total 10 Gy), 1 mg/kg i.p. once a day day 0 to 4",anti-tumor effect exceeding the anti-tumor effect attained by irradiation alone
same,enhancement ratio (ER),"[2]; Exp. Ex. 1-4: X-ray 2 Gy once a day day 0 to 4, 1 mg/kg i.p. once a day day 0 to 4",1.8
